Consider 9 compounds from patent US20060069132A1, “Azolecarboxamide herbicides” (priority 2004, published 2006).

One assay concerns johnsongrass. Briefly: Test C pre-/postemergence herbicide test. The assay is classed as in vivo, Sorghum halepense. As to conditions: for Plant response rating, Johnsongrass / Plant response rating (0 = no effect, 100 = complete control), Johnsongrass: preemergence; for Johnsongrass plant response rating: Preemergence, scale 0 to 100, 0 no effect, 100 complete control. An outline of the steps: (§1)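 Pre/post spray; non-phytotoxic solvent + surfactant. Post-timing 1–4 leaves, 2–18 cm. Read-out: visual % control vs untreated, day 12–14, greenhouse.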

Another assay concerns barnyardgrass. The experiment in a line: Test C flooded paddy test. The assay is classed as in vivo, Echinochloa crus-galli. As to conditions: for Plant response rating, Barnyardgrass: 500 g ai/ha, visual rating after 12 to 14 days. An outline of the steps: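 Ratings (0 = no effect, 100 = complete control) come from visual comparison with untreated plants after 12 to 14 days in the greenhouse. Treatment was postemergence at the 1- to 4-leaf stage (2–18 cm), or at the 2-leaf stage for the flooded paddy barnyardgrass.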

A further assay relates to eastern black nightshade. The experiment in a line: Test C pre-/postemergence herbicide test. The conditions noted are these: for Plant response rating, Nightshade / Plant response rating (0 = no effect, 100 = complete control), Nightshade: preemergence; for Nightshade plant response rating: Preemergence, scale 0 to 100, 0 no effect, 100 complete control. The assay is classed as in vivo, Solanum ptycanthum. In outline:
as §1

Setting [1] is: 125 g ai/ha, scale 0 (no effect) to 100 (complete control), visual, 12 to 14 days.
Setting [2] is: 62 g ai/ha, scale 0 to 100 (0 no effect, 100 complete control).
[3] abbreviates: 125 g ai/ha, scale 0 to 100 (0 no effect, 100 complete control).
The mark [4] stands for this setting: 250 g ai/ha, scale of 0 to 100, 0 is no effect, 100 is complete control.
[5] abbreviates: scale 0 to 100 (0 no effect, 100 complete control).
Setting [6] is: 500 g ai/ha, scale 0 to 100 (0 no effect, 100 complete control), visual, 12 to 14 days.
Where [7] appears, read: 125 g ai/ha, scale of 0 to 100, 0 is no effect, 100 is complete control.
The mark [8] stands for this setting: 250 g ai/ha, scale 0 to 100 (0 no effect, 100 complete control), visual, 12 to 14 days.

`CCNC(=O)c1cccc(NC(=O)c2cc(C3(C)CC3)nn2CC)c1` [Compound 306]: the “Plant response rating, Johnsongrass” value with johnsongrass (62 g ai/ha, scale 0 to 100) was found to be 40; in the assay with johnsongrass (setting [1]) it was 60; in the assay with johnsongrass (250 g ai/ha, scale 0-100), 80. Also, the “Barnyardgrass plant response rating” value in the assay with barnyardgrass (setting [2]) stood at 0; in the assay with barnyardgrass (setting [3]) it was 45; with barnyardgrass (setting [4]) it was 55. In the assay with barnyardgrass (setting [5]), the “Plant response rating, Barnyardgrass” value came to 70. For the same compound, the “Plant response rating, Nightshade” value with eastern black nightshade (62 g ai/ha, scale 0 to 100) was 90; in the assay on eastern black nightshade (setting [1]) it was 95; in the assay on eastern black nightshade (250 g ai/ha, scale 0-100), 100; with eastern black nightshade (setting [6]) it was 100.
Consider `CCn1nc(C(C)(C)C)cc1C(=O)Nc1cccc2c1CCN(C1CC1)C2=O` [Compound 64], for which, in the assay on johnsongrass (62 g ai/ha), the “Plant response rating (0 = no effect, 100 = complete control), Johnsongrass” value is reported as 0. In addition, the “Plant response rating, Johnsongrass” value in the assay with johnsongrass (setting [1]) was determined as 20. In the assay on johnsongrass (500 g ai/ha), the “Johnsongrass plant response rating” value is on record as 60. Further, the “Barnyardgrass plant response rating” value in the assay with barnyardgrass (setting [2]), in the assay with barnyardgrass (setting [7]) and with barnyardgrass (setting [4]) was 0 in each case. The “Plant response rating, Barnyardgrass” value in the assay with barnyardgrass (setting [5]) is recorded as 35. Moreover, the “Plant response rating (0 = no effect, 100 = complete control), Nightshade” value with eastern black nightshade (62 g ai/ha) amounted to 0. Moreover, in the assay on eastern black nightshade (setting [1]), the “Plant response rating, Nightshade” value was 50. In the assay with eastern black nightshade (500 g ai/ha), the “Nightshade plant response rating” value stood at 95.
With `CCN(C)C(=O)c1ccc(F)c(NC(=O)C2CC(C(C)(C)C)=NN2CC)c1` (racemic) [Compound 307], the “Plant response rating, Johnsongrass” value with johnsongrass (62 g ai/ha, scale 0 to 100) was determined as 60; in the assay on johnsongrass (setting [1]) it was 80; with johnsongrass (250 g ai/ha, scale 0-100), 90; in the assay on johnsongrass (setting [6]) it was 100. For the same compound, the “Barnyardgrass plant response rating” value is given as 30 in the assay on barnyardgrass (setting [2]), 65 in the assay with barnyardgrass (setting [3]) and 80 in the assay with barnyardgrass (setting [4]). In addition, the “Plant response rating, Barnyardgrass” value in the assay with barnyardgrass (setting [5]) stood at 95. The “Plant response rating, Nightshade” value is listed as 100 in the assay on eastern black nightshade (62 g ai/ha, scale 0 to 100); 100 in the assay with eastern black nightshade (setting [1]); 100 with eastern black nightshade (250 g ai/ha, scale 0-100); 100 with eastern black nightshade (setting [6]).
As to `CCN(C)C(=O)c1cccc(NC(=O)c2cc(C(C)(C)C)nn2CC)c1` [Compound 48], the “Plant response rating (0 = no effect, 100 = complete control), Johnsongrass” value with johnsongrass (62 g ai/ha) is 10. The figures for the “Plant response rating, Johnsongrass” value in the assay on johnsongrass (setting [1]) and with johnsongrass (setting [8]) were 20 and 50, respectively. In the assay with johnsongrass (500 g ai/ha), the “Johnsongrass plant response rating” value turned out to be 85. In addition, the “Barnyardgrass plant response rating” value in the assay with barnyardgrass (16 g ai/ha, scale 0 to 100) is reported as 0; in the assay with barnyardgrass (31 g ai/ha, scale 0 to 100), 0; in the assay on barnyardgrass (setting [2]), 0; in the assay on barnyardgrass (setting [7]), 0. Besides, in the assay on eastern black nightshade (62 g ai/ha), the “Plant response rating (0 = no effect, 100 = complete control), Nightshade” value worked out at 50. In addition, the “Plant response rating, Nightshade” value in the assay with eastern black nightshade (setting [1]) is 80; in the assay on eastern black nightshade (setting [8]) it was 95. In addition, in the assay with eastern black nightshade (500 g ai/ha), the “Nightshade plant response rating” value amounted to 100.
As for `CCOC(=O)c1cccc(NC(=O)c2cc(C(C)(C)C)nn2CC)c1C` [Compound 88], the “Plant response rating (0 = no effect, 100 = complete control), Johnsongrass” value in the assay with johnsongrass (62 g ai/ha) is reported as 0. The “Plant response rating, Johnsongrass” value in the assay on johnsongrass (setting [1]) is 20. Moreover, in the assay on johnsongrass (500 g ai/ha), the “Johnsongrass plant response rating” value worked out at 70. Besides, the “Barnyardgrass plant response rating” value in the assay on barnyardgrass (setting [2]) stood at 0; with barnyardgrass (setting [7]) it was 0; in the assay with barnyardgrass (setting [4]), 15. Further, the “Plant response rating, Barnyardgrass” value in the assay with barnyardgrass (setting [5]) worked out at 45. Further, in the assay on eastern black nightshade (62 g ai/ha), the “Plant response rating (0 = no effect, 100 = complete control), Nightshade” value is listed as 40. In addition, the “Plant response rating, Nightshade” value in the assay on eastern black nightshade (setting [1]) is reported as 90. The “Nightshade plant response rating” value in the assay with eastern black nightshade (500 g ai/ha) amounted to 95.
For `CCCN1CCc2c(NC(=O)c3cc(C(C)(C)C)nn3CC)cccc2C1=O` [Compound 65], in the assay on johnsongrass (62 g ai/ha), the “Plant response rating (0 = no effect, 100 = complete control), Johnsongrass” value was found to be 10. Further, the “Plant response rating, Johnsongrass” value with johnsongrass (setting [1]) was found to be 40. Also, the “Johnsongrass plant response rating” value with johnsongrass (500 g ai/ha) was 100. For the same compound, the “Barnyardgrass plant response rating” value with barnyardgrass (setting [2]) was found to be 0; in the assay with barnyardgrass (setting [7]), 0; in the assay on barnyardgrass (setting [4]) it was 30. In addition, the “Plant response rating, Barnyardgrass” value in the assay on barnyardgrass (setting [5]) came out at 60. Moreover, the “Plant response rating (0 = no effect, 100 = complete control), Nightshade” value in the assay on eastern black nightshade (62 g ai/ha) is given as 50. Also, the “Plant response rating, Nightshade” value with eastern black nightshade (setting [1]) is reported as 90. Moreover, in the assay with eastern black nightshade (500 g ai/ha), the “Nightshade plant response rating” value was determined as 100.
For `CCC1=NN(C(C)(C)C)CC1C(=O)Nc1cc(C(=O)N(C)C)ccc1F` (racemic) [Compound 343], the “Plant response rating, Johnsongrass” value stood at 70 with johnsongrass (62 g ai/ha, scale 0 to 100); 100 in the assay on johnsongrass (250 g ai/ha, scale 0-100); 100 in the assay with johnsongrass (setting [6]). Moreover, the “Plant response rating (0 = no effect, 100 = complete control), Johnsongrass” value in the assay on johnsongrass (125 g ai/ha) amounted to 80. The entries for the “Barnyardgrass plant response rating” value in the assay on barnyardgrass (setting [2]), in the assay with barnyardgrass (setting [3]) and with barnyardgrass (setting [4]) were 20, 20 and 60, respectively. For the same compound, in the assay on barnyardgrass (setting [5]), the “Plant response rating, Barnyardgrass” value came out at 80. The “Plant response rating, Nightshade” value is given as 60 in the assay on eastern black nightshade (62 g ai/ha, scale 0 to 100); 90 with eastern black nightshade (250 g ai/ha, scale 0-100); 95 in the assay with eastern black nightshade (setting [6]). For the same compound, the “Plant response rating (0 = no effect, 100 = complete control), Nightshade” value in the assay with eastern black nightshade (125 g ai/ha) came out at 60.
On to `CCn1nc(C(C)(C)C)cc1C(=O)Nc1cccc(SC)c1` [Compound 131], for which the “Plant response rating (0 = no effect, 100 = complete control), Johnsongrass” value in the assay on johnsongrass (62 g ai/ha) was found to be 15. The “Plant response rating, Johnsongrass” value with johnsongrass (setting [1]) worked out at 40. Further, the entries for the “Barnyardgrass plant response rating” value in the assay with barnyardgrass (setting [2]), with barnyardgrass (setting [7]) and in the assay on barnyardgrass (setting [4]) were 0, 0 and 10, respectively. For the same compound, the “Plant response rating, Barnyardgrass” value in the assay with barnyardgrass (setting [5]) came out at 30. The “Plant response rating (0 = no effect, 100 = complete control), Nightshade” value in the assay with eastern black nightshade (62 g ai/ha) was determined as 55. Also, the “Plant response rating, Nightshade” value with eastern black nightshade (setting [1]) turned out to be 95.
Take `CCn1nc(C(C)(C)C)cc1C(=S)Nc1cc(C(=S)N(C)C)ccc1F` [Compound 305]: the “Plant response rating, Johnsongrass” value in the assay with johnsongrass (62 g ai/ha, scale 0 to 100) worked out at 65; in the assay on johnsongrass (setting [1]) it was 90; in the assay on johnsongrass (250 g ai/ha, scale 0-100), 95; in the assay on johnsongrass (setting [6]) it was 95. Besides, the entries for the “Barnyardgrass plant response rating” value in the assay with barnyardgrass (setting [2]), in the assay with barnyardgrass (setting [3]) and in the assay on barnyardgrass (setting [4]) were 70, 85 and 95, respectively. Moreover, in the assay on barnyardgrass (setting [5]), the “Plant response rating, Barnyardgrass” value is given as 100. Also, the “Plant response rating, Nightshade” value with eastern black nightshade (62 g ai/ha, scale 0 to 100) is 60; in the assay with eastern black nightshade (setting [1]) it was 90; in the assay on eastern black nightshade (250 g ai/ha, scale 0-100), 100; with eastern black nightshade (setting [6]), 100.
